# What was measured:
# [1] = biological target: T1, CYP11A (Homo sapiens, UniProt P05108); assay: Conversion reaction of substrates by CYP11A-expressing Escherichia coli; format: cell-based
# T1 construct: A 1.45-kb CYP11A1 gene fragment amplified as a result of the above-described reaction; expressed in transfected cells; host or cells: Escherichia coli BL21(DE3), plasmid pCYP11A-ARX (strain BL21CYP11)
# T1 sequence (P05108 40-521): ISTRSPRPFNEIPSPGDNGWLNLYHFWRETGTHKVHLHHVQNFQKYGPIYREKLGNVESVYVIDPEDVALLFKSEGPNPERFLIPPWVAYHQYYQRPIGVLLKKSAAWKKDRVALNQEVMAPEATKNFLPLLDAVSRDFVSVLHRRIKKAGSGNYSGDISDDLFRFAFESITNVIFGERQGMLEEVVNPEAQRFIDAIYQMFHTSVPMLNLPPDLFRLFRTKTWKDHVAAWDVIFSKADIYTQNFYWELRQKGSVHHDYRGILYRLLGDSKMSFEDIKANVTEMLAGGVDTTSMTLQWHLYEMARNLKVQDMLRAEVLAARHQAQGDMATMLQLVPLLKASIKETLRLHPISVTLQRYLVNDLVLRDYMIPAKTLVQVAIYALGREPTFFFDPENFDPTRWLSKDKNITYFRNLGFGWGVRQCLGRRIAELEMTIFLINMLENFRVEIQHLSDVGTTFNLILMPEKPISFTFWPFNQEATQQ
# Experimental: The Escherichia coli expression strain BP215 was inoculated into 2 ml of an M9 mix medium (Na2HPO4: 0.68%, KH2PO4: 0.3%, NaCl: 0.05%, NH4C;: 0.01%, Casamino acid: 1%, D-Glucose: 0.4%, CaCl2: 0.1 mM, MgCl2: 1 mM, Thiamine: 0.002%, FeSO4: 0.1 mM, Carbenicillin: 0.005%), and it was then subjected to shaking culture at 30° C. for 17 hours, so as to obtain pre-culture solution. 0.25 ml of this pre-culture solution was inoculated into 25 ml of the main culture medium (Na2HPO4: 0.68%, KH2PO4: 0.3%, NaCl: 0.05%, NH4Cl: 0.01%, Casamino acid: 1%, CaCl2: 0.1 mM, MgCl2: 1 mM, Thiamine: 0.002%, FeSO4: 0.1 mM, Carbenicillin: 0.005%, Overnight Express™ solution: 7%, 5-Aminolevlic acid: 0.008%) using Overnight Express™ Autoinduction System (Novagen Cat. No. 71300-4), and it was then subjected to shaking culture at 25° C. for 24 hours. 5 ml of the obtained main culture solution was centrifuged (3500 rpm, 10 minutes) to obtain cell mass, and 1 ml of CV2 buffer (50 mM (pH) potassium phosphate buffer containing glycerol: 2%, carbenicillin: 0.005%, and isopropyl β-D-1-thiogalactopyranoside: 0.1 mM) was added to the obtained cell mass. Thereafter, 0.01 ml of the methanol solution of 1% 4-cholesten-3-one and 0.02 ml of an aqueous solution of 25% methyl-β-cyclodextrin were added to the mixed solution, and the obtained mixture was then shaken at 28° C. for 5 hours for the reaction. After completion of the reaction, 4 ml of methanol was added to the reaction solution, and they were then fully mixed. The obtained mixture was centrifuged, and the upper layer was then analyzed by HPLC.
# A commercially available human testis cDNA (Origene Technologies, Inc.) was used as a template, and a CYP11A1 gene was amplified by PCR using a primer CYP11A-1F (SEQ ID NO: 19) and a primer CYP11A-2R (SEQ ID NO: 20), and also using KOD plus polymerase (TOYOBO Co., Ltd.). The temperature conditions applied during the PCR were 94° C./3 min, 30 cycles of (94° C./30 sec, 55° C./60 sec, and 72° C./90sec), and 72° C./5 min.
# A 1.45-kb CYP11A1 gene fragment amplified as a result of the above-described reaction was purified using QIAquick PCR purification Kit (manufactured by QIAGEN), and it was then digested with Nde I and Spe I. Thereafter, the digest was ligated to Escherichia coli expression vector pT7NS-camAB, using T4 DNA ligase, and Escherichia coli DH5α was then transformed with the obtained expression vector, so as to construct a plasmid pCYP11A-camAB. Subsequently, using T4 DNA ligase, the previously prepared bovine-derived adrenodoxin reductase protein-adrenodoxin gene (adr-adx) fragment was inserted into and ligated to each of the Spe I and Bam HI sites of the above-described plasmid, and Escherichia coli DH5a was then transformed with the obtained plasmid, so as to construct plasmid pCYP11A-ARX. Thereafter, Escherichia coli BL21(DE3) was transformed with the thus constructed plasmid, and the obtained cell strain was named as BL21CYP11. The used adx-adr fragment was amplified by PCR with a plasmid pKARX (Sawada et. al. Eur. J. Biochem. 265, 950-956,1999) as a template, using primer bAdxR-1F (SEQ ID NO: 21) and primer bAdx-2R (SEQ ID NO: 22), and also using KOD plus polymerase (manufactured by TOYOBO Co., Ltd.). The temperature condition applied during the PCR were 94° C./3 min, 25 cycles of (94° C./30 sec, 60° C./30 sec, and 72° C./120sec), and 72° C./5 min.
# Each substrate was subjected to the same reaction as that of Example 6, separately, and the reaction solution was then subjected to liquid separation using 1 ml of ethyl acetate. The reaction product and the substrate were extracted, and were then analyzed by HPLC.
# [2] = biological target: T2, Novosphingobium aromaticivorans ATCC 700278 P450scc CYP204A1, wild type, SEQ ID NO: 23 (Novosphingobium aromaticivorans, UniProt A4XF07); assay: Kinetics analysis of CYP204A1 with 4-cholesten-3-one (conversion to progesterone, cell-free extract)
# T2 sequence (A4XF07 1-473): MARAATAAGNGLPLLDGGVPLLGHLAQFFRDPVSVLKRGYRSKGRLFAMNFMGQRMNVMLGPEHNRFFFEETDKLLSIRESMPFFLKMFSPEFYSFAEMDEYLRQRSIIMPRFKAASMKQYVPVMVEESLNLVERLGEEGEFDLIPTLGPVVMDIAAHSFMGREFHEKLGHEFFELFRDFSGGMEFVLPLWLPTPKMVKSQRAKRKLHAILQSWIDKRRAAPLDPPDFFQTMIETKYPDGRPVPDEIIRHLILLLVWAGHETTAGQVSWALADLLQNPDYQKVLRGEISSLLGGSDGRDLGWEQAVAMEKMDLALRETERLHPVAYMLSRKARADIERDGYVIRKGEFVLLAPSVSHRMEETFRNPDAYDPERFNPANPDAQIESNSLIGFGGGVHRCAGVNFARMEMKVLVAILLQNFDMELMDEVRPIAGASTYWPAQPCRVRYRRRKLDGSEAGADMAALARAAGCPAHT
compound,measurement,setting,value
CC(C)CCC[C@@H](C)[C@H]1CC[C@H]2[C@@H]3CCC4=CC(=O)CC[C@]4(C)[C@H]3CC[C@]12C [4-cholesten-3-one],added substrate remained,[1]; same reaction as Example 6,100%
same,Conversion rate,"[1]; same reaction as Example 6 (28° C., 5 hours)",0%
same,Vmax,"[2]; 4-cholesten-3-one 0.1 to 500 μM, pH 7.5, 15° C., 60 minutes, Lineweaver-Burk plot",47.4 mmol/min/mol
same,"Vmax, relative activity",[2]; relative to CYP204A1 (1.00),1.00
same,decrease rate of the enzyme protein activity (substrate inhibition),"[2]; substrate concentration increased from 10 μM to 100 μM, pH 7.5, 15° C.",33%

# From patent US20120178124A1, “STEROL SIDE CHAIN-CLEAVING ENZYME PROTEIN AND USE THEREOF” (MITSUBISHI CHEMICAL CORPORATION, priority 2009, published 2012)
